According to US20110009332A1, “Therapeutic Treatment Of Wounds” (SOUTHWEST RESEARCH INSTITUTE, priority 2009, published 2011):
Where “and” joins values, the source holds several entries; their conditions need not be identical. Identical values can stand only once. Entries after “also recorded” stand apart in the source; their conditions may differ. Where a SMILES comes first, the peptide text is derived from it. The star is where a group is joined. Cbz = O=C(OCc1ccccc1)*; OtBu = CC(C)(C)O*

Columns and labels:
rat skin = test: Tensile strength of rat skin after 28 days of treatment (Example 2); type: in vivo, rats; set-up: Tensile strength of rat skin, Mean: unit not given here; conditions: for Tensile strength of rat skin, individual samples: 100 μl per wound site daily for 5 days, samples 1-5, in N/mm²; for Tensile strength of rat skin, individual samples / Tensile strength of rat skin, Mean: after 28 days; for Tensile strength of rat skin, Mean: control mean 3.12114
Method: Testing of PS-1 was performed in rats and was provided at 1% and 5% in DMSO. The rats received 100 μl per wound site. The compound was administered daily for 5 days and skin was collected at 7 days, 14 days and 28 days. The biomechanical tensile strength of the skin was measured. Table 2 illustrates the testing data after 28 days for a control sample without treatment, 1% PS-1 in DMSO and 5% PS-1 in DMSO.

[1] = test system: incisional wounds of Sprague-Dawley rats; test: Incisional wound healing model: histology; type: in vivo; conditions: for Overall Dermal Collagen Response: histology score; for wounds presenting with some degree of epithelial hyperplasia: control rats 60%
From the text: (§1) Using a standard incisional wound healing model, two 6 cm linear incisions were made through the panniculus carnosum on the dorsal aspect of 10 to 12 week old male Sprague-Dawley rats 1 centimeter on either side of midline running cephalid to caudal using a prefabricated template. Three surgical clips were used to close the incision and serve as guides for sectioning on harvest day.
(§2) Rats were randomly assigned to 1 of 3 treatment groups, indentified by the treatment administered to the wound located on the left. All wounds located on the right, regardless of treatment group, received vehicle (100% DMSO) as a control. […] Treatment was administered by applying 100 micro liters into (at time of closure) or onto the wound every 24 hours for the first 48 hours beginning at the time of wound closure, totaling 3 doses per wound.
(§3) On days 7, 14 and 28 post-wounding, the rats were euthanized and the entire dorsal skin excised. Four 8 mm sample strips were cut perpendicular to the wounds, to incorporate both the treated wound and the adjacent vehicle wound. The sample strips were then cut in half, equidistance from the two parallel wounds, yielding a total of four samples per wound, and yielding a compliment vehicle wound for each treated sample. One cephalic and one caudle sample were immediately prepared for histology, with the remaining two strips immediately prepared for tensometry.
Histological samples were fixed in 10% formalin, routinely processed, embedded in paraffin, and sectioned at approximately 5 μm. Cross sections of skin were stained with hematoxylin and eosin (H&E) and Masson's Trichrome using routine methods. All slides were subjectively evaluated on an Olympus BX40 microscope (Olympus America, Center Valley, Pa.) by a board-certified veterinary pathologist blinded to the treatment groups. The following parameters were determined for each sample: (1) collagen density (0=no mature collagen, 1=loose, 2=intermediate, 3=dense); (2) collagen maturity (1=immature, 2=intermediate, 3=mature); (3) amount and type of inflammation present in the dermis (0=none, 1=minimal, 2=mild, 3=moderate, 4=severe); (4) epithelial hyperplasia (0=none, 1=minimal, 2=mild, 3=moderate, 4=severe); (5) amount of epidermal necrosis over wound (0=0%, 1=25%, 2=50%, 3=75%, 4=100). Images were captured using an Olympus BX41 microscope (Olympus America, Center Valley, Pa.) and an Olympus DP71 digital camera (Olympus America, Center Valley, Pa.). Captured images of Masson's Trichrome sections under a 4× objective were uploaded into ImageJ (NIH) in order to calculate the cross sectional area of immature collagen within day 28 wounds. For statistical purposes, samples were averaged to provide a single score in each parameter per wound.
(§4) A paired student's t-test was used for statistical comparisons between adjacent wounds. A tukey's comparison was used for statistical comparison of wounds between different rats. A Kruskal-Wallis test was used for comparing graded histology. A Chi square was used to determine statistical meaning of epithelial necrosis.

[2] = test system: incisional wounds of Sprague-Dawley rats; test: Incisional wound healing model: tensometry and wound thickness; type: in vivo
From the text: as §1, §2, §3
Prior to sample loading for testing by tensometry, the underlying subcutaneous fascia was removed to the level of the panniculus carnosum using sharp dissection, following a natural dissection plane. For the day 28 wounds, the 8 mm samples were divided into 4 mm strips prior to loading secondary to slippage issues encountered during the pilot study. Samples were loaded into a Lloyd Instrument materials testing system (model LRX plus, Fareham, Hampshire, UK) with a 50 N load cell, with the wounds perpendicular to the grips and pulled at a rate of 200 mm/min. Wound thickness, just superficial to epithelium and just deep to panniculus carnosum, was measured at the time of testing with digital calipers (Absolute Digimatic Caliper, Mitutoyo, Kawasaki, Kanagawa, Japan). The wound width was measured at a preload of 0.5N by obtaining the correlating still frame image from a hands free mounted video camera (HDR-SR1 Handycam® camcorder, Sony, San Diego, Calif.). These two measurements were then used to calculate the cross sectional area of the wounds and the subsequent tensile strength (N/mm^2).
as §4

EFT400-Epidermis = test: Skin thickness upon addition of PS-1 (EPIDERMFT EFT-400 tissue samples, in vitro); type: cell-based; conditions: for EFT400-Epidermis thickness, Trial 1: control 61; for EFT400-Epidermis thickness, Trial 3: control 66.22; for EFT400-Epidermis thickness, Trial 2: control 73.73
Method: Tissue samples were received and equilibrated for treatment. Media was retained for enzyme-linked immunosorbent assay (ELISA) using an EPIDERMFT kit, product number EFT-400. On the second day, PS-1 treatment was added to the samples, wherein the media was exchanged with compound in 4 ml. More specifically, three samples were maintained as control samples and included DMSO at a concentration of 62 μm/10 ml, with no added PS-1 treatment, 0.1 μM (0.620/10 ml) was added to three samples, 1 μM (0.620/10 ml) was added to three samples, and 10 μM (0.620/10 ml) was added to three samples.
The samples were left to incubate on days 3-5 and on day 6, the media was exchanged again. On the seventh day, tissue samples were removed and conditioned media was saved for ELISA. The samples were then measured using […].
FIG. 2 illustrates changes in the epidermis thickness versus the amount of PS-1 added to the assays and the supporting data is presented in Table 1 below. […] FIGS. 3 through 5 illustrate the difference in thickness as between the control samples and the 10 μl/ml samples at 10× magnification and 40× magnification.

## CC[C@H](C)[C@H](NC(=O)OCc1ccccc1)C(=O)N[C@@H](CCC(=O)OC(C)(C)C)C(=O)N[C@@H](C)C(=O)N[C@H](C=O)CC(C)C [PS-1, Z-Ile-Glu(OBu^t)-Ala-Leu-H] (Cbz-IE(OtBu)AL-aldehyde)
Rat skin; 1% PS-1 in DMSO
  Tensile strength of rat skin, individual samples: 3.707 and 3.47 and 3.655 and 4.169 and 4.476
  Tensile strength of rat skin, Mean: 3.895
Rat skin; 5% PS-1 in DMSO
  Tensile strength of rat skin, individual samples: 4.067 and 4.379 and 3.805 and 5.042 and 5.192
  Tensile strength of rat skin, Mean: 4.497
Rat skin; 5% PS-1 in DMSO, 28 days, FIG. 6
  strength of rat skin tissue (in words): relatively stronger tissue
[1]; PS-1 1% treated wounds, Day 7, control 0.8 ± 0.3
  Overall Dermal Collagen Response: 0.8 ± 0.3
[1]; PS-1 1% treated wounds, Day 14, control 1.9 ± 0.3
  Overall Dermal Collagen Response: 2.1 ± 0.3
[1]; PS-1 1% treated wounds, Day 28, control 2.6 ± 0.5
  Overall Dermal Collagen Response: 2.9 ± 0.3
[1]; PS-1 5% treated wounds, Day 7, control 0.8 ± 0.3
  Overall Dermal Collagen Response: 0.7 ± 0.3
[1]; PS-1 5% treated wounds, Day 14, control 1.9 ± 0.3
  Overall Dermal Collagen Response: 2.0 ± 0.0
[1]; PS-1 5% treated wounds, Day 28, control 2.6 ± 0.5
  Overall Dermal Collagen Response: 2.8 ± 0.3
[1]; day 14, most notable in rats receiving 1% PI
  accumulation of neutrophils in the dermis (in words): nearly extinct
[1]; day 28, 1% PI rats
  wounds presenting with some degree of epithelial hyperplasia: 8 % of wounds
[1]; day 28, 5% PI rats
  wounds presenting with some degree of epithelial hyperplasia: 20 % of wounds
[1]; day 28, most notably low dose rat wounds, FIG. 20
  macrophage and lymphocyte accumulates (in words): continued to decline
[1]; wounds receiving direct administration of the PI, seemingly dose dependent
  histology finding in the subcutaneous tissue beneath the panniculus carnosum (in words): foreign body reaction
[2]; after PS-1 treatment
  normalization of wound thickness (in words): normalized faster
[2]; day 7 post-wounding, high dose (5% w/w in DMSO), p=0.0223
  tensile strength vs untreated wounds (in words): significantly lower
[2]; day 7 post-wounding, low dose (1% w/w in DMSO), p=0.0121
  tensile strength vs untreated wounds (in words): significantly lower
[2]; day 14 post-wounding, all wounds
  tensile strength, differences between wounds (in words): no significant differences in tensile strength
[2]; day 28, 1% PI, p=0.057
  wound thickness vs untreated control wounds (in words): thinner than untreated control wounds, but just lacked significance
[2]; day 28, 5% PI, p=0.013
  wound thickness vs untreated control wounds (in words): significantly thinner
[2]; day 28 post-wounding, 1% PI
  tensile strength vs untreated wounds (in words): no significant difference
[2]; day 28 post-wounding, 5% PI, p=0.0269
  tensile strength vs untreated wounds (in words): significantly increased tensile strength
EFT400-Epidermis; 0.1 μM PS-1
  EFT400-Epidermis thickness, Trial 1: 69.47 microns
  EFT400-Epidermis thickness, Trial 3: 78.82 microns
  EFT400-Epidermis thickness, Trial 2: 61.85 microns
EFT400-Epidermis; 1 μM PS-1
  EFT400-Epidermis thickness, Trial 1: 59.13 microns
  EFT400-Epidermis thickness, Trial 3: 61.6 microns
  EFT400-Epidermis thickness, Trial 2: 54.09 microns
EFT400-Epidermis; 10 μM PS-1
  EFT400-Epidermis thickness, Trial 1: 106.31 microns
  EFT400-Epidermis thickness, Trial 3: 100.16 microns
  EFT400-Epidermis thickness, Trial 2: 96.2 microns
EFT400-Epidermis; addition of 10 μm, compared with the other samples
  thickness of the resultant epidermis in vitro (in words): relatively significant increase in the thickness
EFT400-Epidermis; treated samples vs control samples, FIGS. 3-5
  stratum granulosum formation (in words): relatively well formed stratum granulosum; also recorded: relatively better developed stratum granulosum
